These results are taken from patent US20230219963A1, “PYRROLO[2,3-D]PYRIMIDINE DERIVATIVES” (Pfizer Inc., priority 2020, published 2023).

One assay deals with IFNa induced pSTAT3. The assay can be described thus: IFNα-induced pSTAT3 in human whole blood (lymphocytes). It is filed as cell-based. As to conditions: Lymphocyte, JAK1/TYK2, read-out: IFNa induced pSTAT3, cellular potency IC50. The procedure: Human whole blood was collected from healthy donors via vein puncture into Vacutainer collection tubes containing sodium heparin in accordance with Pfizer protocols (Protocol No. GOHW RDP-01) approved by the Shulman Institutional Review Board. Blood was warmed to 37° C. priorto use. Human whole blood was aliquoted (90 μL/well) in 96-well, deep-well, V-bottom plates and treated with compounds (5 μL/well) at different concentrations up to 60 μM (0.2% DMSO final) at 37° C. for 60 minutes. This was followed by a challenge with IFNα (5000 U/mL), IFNγ (100 ng/mL), IL-6 (50 ng/mL), IL-10 (30 ng/mL), IL-12 (30 ng/mL), IL-15 (30 ng/mL), IL-21 (50 ng/mL), IL-23 (25 ng/mL), IL-27 (1000 ng/mL), EPO (2 U/mL), TSLP (50 ng/mL) or PBS and incubated for 15 minutes. Anti-cell surface antibodies were added 15 minutes prior to cytokine stimulation; anti-CD3-BV421 (0.5 μL/well) to IL-6-treated and TSLP-treated samples and anti-CD14-BV421 (0.5 μL/well) to IFNγ-treated samples. Samples were treated with warm 1×Lyse/Fix buffer (700 μL/well) to terminate activation and further incubated at 37° C. for 20 minutes to lyse red blood cells. Plates were centrifuged at 300×g for 5 minutes, supernatant was aspirated, and cells were washed with 800 μL/well of staining buffer (D-PBS containing 0.1% FBS and 0.01% sodium azide). Washed cell pellets were resuspended in 350 μL/well of prechilled 90% methanol and incubated at 4° C. for 30 minutes. After the removal of 90% methanol, cells were washed once with staining buffer. […]
After overnight incubation at 4° C., anti-pSTAT stained samples were transferred into 96-well polypropylene U-bottom plates and flow cytometric analysis was performed on a LSR Fortessa™ equipped with a HTS plate loader. […] Background fluorescence was defined using unstimulated cells and a gate was placed at the foot of the peak to include ˜0.5% gated population. […]

In the next assay the target is TYK2 (Homo sapiens, UniProt P29597). Description: JAK Caliper Enzyme Assay at 1 mM ATP (TYK2). It is filed as biochemical. As to the method: JAK Caliper Enzyme Assay at 1 mM ATP
Test article was solubilized in dimethyl sulfoxide (DMSO) to a stock concentration of 30 mM. An 11-point half log dilution series was created in DMSO with a top concentration of 600 μM. […] The compound plates were diluted 1 to 60 resulting in a top final assay compound concentration of 10 μM and a 2% DMSO concentration. Test article and assay controls were added to a 384-well plate. Reaction mixtures contained 20 mM HEPES, pH 7.4, 10 mM magnesium chloride, 0.01% bovine serum albumin (BSA), 0.0005% Tween 20, 1 mM ATP and 1 μM peptide substrate. […] The assays were initiated by the addition of 20 nM JAK1, 1 nM JAK2, 1 nM JAK3 or 1 nM TYK2 enzyme and were incubated at room temperature for three hours for JAK1, 60 minutes for JAK2, 75 minutes for JAK3 or 135 minutes for TYK2. Enzyme concentrations and incubation times were optimized for each new enzyme preps and were modified slightly over time to ensure 20%-30% phosphorylation. The assays were stopped with a final concentration of 10 mM EDTA, 0.1% Coating Reagent and 100 mM HEPES, pH=7.4. The assay plates were placed on a Caliper Life Science Lab Chip 3000 (LC3000) instrument, and each well was sampled using appropriate separation conditions to measure the unphosphorylated and phosphorylated peptide.

Sequence of TYK2 (P29597 whole entry): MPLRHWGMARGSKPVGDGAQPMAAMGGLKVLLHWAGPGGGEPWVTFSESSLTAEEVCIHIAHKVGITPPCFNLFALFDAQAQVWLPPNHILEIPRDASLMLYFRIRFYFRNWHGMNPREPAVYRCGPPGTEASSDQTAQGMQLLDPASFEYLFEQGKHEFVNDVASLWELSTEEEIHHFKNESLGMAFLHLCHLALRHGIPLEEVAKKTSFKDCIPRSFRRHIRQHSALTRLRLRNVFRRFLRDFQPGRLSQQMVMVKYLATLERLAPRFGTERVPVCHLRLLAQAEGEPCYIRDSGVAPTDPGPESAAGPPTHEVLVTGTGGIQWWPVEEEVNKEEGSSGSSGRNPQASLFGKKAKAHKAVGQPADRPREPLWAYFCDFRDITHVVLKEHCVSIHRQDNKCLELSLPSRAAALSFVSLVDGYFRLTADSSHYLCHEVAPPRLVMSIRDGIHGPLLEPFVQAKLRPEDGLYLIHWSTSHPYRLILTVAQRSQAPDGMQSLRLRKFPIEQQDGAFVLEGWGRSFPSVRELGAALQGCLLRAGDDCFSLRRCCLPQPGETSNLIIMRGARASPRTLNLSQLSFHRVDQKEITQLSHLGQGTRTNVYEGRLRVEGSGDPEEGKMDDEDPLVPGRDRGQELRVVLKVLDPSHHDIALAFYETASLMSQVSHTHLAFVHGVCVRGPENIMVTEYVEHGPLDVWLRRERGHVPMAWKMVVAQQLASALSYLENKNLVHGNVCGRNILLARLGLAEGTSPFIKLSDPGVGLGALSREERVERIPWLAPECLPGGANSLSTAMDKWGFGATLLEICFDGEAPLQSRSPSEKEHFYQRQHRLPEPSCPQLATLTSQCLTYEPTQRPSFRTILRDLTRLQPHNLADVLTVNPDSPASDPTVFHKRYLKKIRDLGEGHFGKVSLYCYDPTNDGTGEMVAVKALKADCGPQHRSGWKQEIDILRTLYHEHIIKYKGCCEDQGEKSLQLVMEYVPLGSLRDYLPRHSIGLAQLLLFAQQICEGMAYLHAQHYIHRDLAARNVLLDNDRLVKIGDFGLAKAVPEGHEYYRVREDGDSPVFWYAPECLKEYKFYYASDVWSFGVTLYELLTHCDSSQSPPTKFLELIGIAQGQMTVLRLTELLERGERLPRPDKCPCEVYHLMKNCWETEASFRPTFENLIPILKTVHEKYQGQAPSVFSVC

In general, IC50 refers to the concentration that gives 50% inhibition. With `C[C@H](O)CS(=O)(=O)N[C@H]1C[C@@H](N(C)c2ncnc3[nH]ccc23)C1` (single isomer, unassigned) [IA (M2)], the IC50 in the assay on IFNa induced pSTAT3 amounted to 0.0905 µM; against TYK2 it was 1.21 µM.
Taken in the same sequence, the figures for `C[C@@H](O)CS(=O)(=O)N[C@H]1C[C@@H](N(C)c2ncnc3[nH]ccc23)C1` (single isomer, unassigned) [IC (M3)] were 0.225 µM and 3.42 µM.
Take `CN(c1ncnc2[nH]ccc12)[C@H]1C[C@@H](NS(=O)(=O)CCCO)C1` [IB (M1), 3-Hydroxy-N-(cis-3-(methyl(7H-pyrrolo[2,3-d]pyrimidin-4-yl)amino)cyclobutyl)propane-1-sulfonamide]: the results for the concentration for half-maximal inhibition (IC50) with IFNa induced pSTAT3 and on TYK2 were 0.296 µM and 3.19 µM, respectively.
